The source of these data is patent US12612379B2, “Inhibitors of APOL1 and methods of using same” (Vertex Pharmaceuticals Incorporated, priority 2021, dated 2026).

The assay has as its target T1, APOL1 (tet-inducible transgenic APOL1 T-REx-HEK293 cell lines) (Homo sapiens, UniProt O14791).
T1 sequence (O14791 1-398 S342G/I384M): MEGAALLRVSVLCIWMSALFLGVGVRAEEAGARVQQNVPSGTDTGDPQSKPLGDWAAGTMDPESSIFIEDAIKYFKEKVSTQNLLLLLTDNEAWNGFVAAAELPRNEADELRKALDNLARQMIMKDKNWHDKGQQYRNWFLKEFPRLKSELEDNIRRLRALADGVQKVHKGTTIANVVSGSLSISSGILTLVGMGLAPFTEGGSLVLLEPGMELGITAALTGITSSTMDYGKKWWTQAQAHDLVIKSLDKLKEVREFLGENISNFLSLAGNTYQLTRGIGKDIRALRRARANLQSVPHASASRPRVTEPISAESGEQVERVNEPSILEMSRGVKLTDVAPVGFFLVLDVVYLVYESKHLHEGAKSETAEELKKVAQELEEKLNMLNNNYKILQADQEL
Kind of assay: MultiTox-Fluor Multiplex Cytotoxicity Assay for APOL1 inhibitor properties. Type of assay: cell-based. Particulars: APOL1 induced with 50 ng/mL tet, 24 hours with compound, ratio of dead to live cells, top concentration 10 μM; APOL1 variant (G0/G1/G2) not stated; read-out: IP50 (nM) (i.e., IC50 for cell proliferation). How it is done: The MultiTox-Fluor Multiplex Cytotoxicity Assay is a single-reagent-addition, homogeneous, fluorescence assay that measures the number of live and dead cells simultaneously in culture wells. The assay measures cell viability and cytotoxicity by detecting two distinct protease activities. The live-cell protease activity is restricted to intact viable cells and is measured using a fluorogenic, cell-permeant peptide glycyl-phenylalanylamino fluorocoumarin (GF-AFC) substrate. The substrate enters intact cells, where it is cleaved to generate a fluorescent signal proportional to the number of living cells. […] A second, cell-impermeant, fluorogenic peptide substrate (bis-AAF-R110 Substrate) is used to measure dead-cell protease that has been released from cells that have lost membrane integrity. A ratio of dead to live cells is used to normalize data.
Briefly, the tet-inducible transgenic APOL1 T-REx-HEK293 cell lines were incubated with 50 ng/mL tet to induce APOL1 in the presence of 3-(2-(4-fluorophenyl)-1H-indol-3-yl)-N-((3S,4R)-4-hydroxy-2-oxopyrrolidin-3-yl)propenamide at 10.03, 3.24, 1.13, 0.356, 0.129, 0.042, 0.129, 0.0045, 0.0015, 0.0005 μM in duplicate for 24 hours in a humidified 37° C. incubator. The MultiTox reagent was added to each well and placed back in the incubator for an additional 30 minutes. The plate was read on the EnVision plate reader. A ratio of dead to live cells was used to normalize, and data was imported, analyzed, and fit using Genedata Screener (Basel, Switzerland) software. Data was normalized using percent of control, no tet (100% viability), and 50 ng/mL tet treated (0% viability), and fit using Smart Fit. The reagents, methods, and complete protocol for the MultiTox assay are described below.
Human embryonic kidney (HEK293) cell lines containing a tet-inducible expression system (T-REx™; Invitrogen, Carlsbad, CA) and Adeno-associated virus site 1 pAAVS1-Puro-APOL1 G0 or pAAVS1-Puro-APOL1 G1 or pAAVS1-Puro-APOL1 G2 Clones G0 DC2.13, G1 DC3.25, and G2 DC4.44 were grown in a T-225 flask at ˜90% confluency in cell growth media (DMEM, 10% Tet-free FBS, 2 mM L-glutamine, 100 Units/mL penicillin-streptomycin, 5 μg/mL blasticidin S HCl, 1 μg/mL puromycin dihydrochloride). Cells were washed with DPBS and then trypsinized to dissociate from the flask. Media was used to quench the trypsin, cells were then pelleted at 200 g and resuspended in fresh cell assay media (DMEM, 2% Tet-free FBS, 2 mM L-glutamine, 100 Units/mL penicillin-streptomycin). Cells were counted and diluted to 1.17×10^6 cells/mL. 20 μL of cells (23,400/well) were dispensed in every well of a 384-well Poly-D-Lysine coated plate using the Multidrop dispenser. The plates were then incubated at room temperature for one hour.
Tetracycline is needed to induce APOL1 expression. 1 mg/mL tet stock in water was diluted to 250 ng/mL (5×) in cell assay media. 60 μL of cell assay media (no tet control) was dispensed in columns 1 and 24, and 60 μL of 5×tet in 384-PP-round bottom plate was dispensed in columns 2 to 23 with the Multidrop dispenser.
Assay ready plates from the Global Compound Archive were ordered using template 384_APOL1Cell_DR10n2_50 uM_v3. Compounds were dispensed at 200 nL in DMSO. The final top concentration was 10 μM with a 10 point 3-fold dilution in duplicate in the MultiTox assay.
20 μL was transferred from the 5×tet plate to the ARP and mixed, then 5 μL of 5×tet and the compounds were transferred to the cell plate and mixed using the Bravo. The cell plate was placed in the humidified 37° C. 5% CO2 incubator for 24 hours.
The MultiTox-Fluor Multiplex Cytotoxicity Assay was performed in accordance with the manufacturer's protocol. After cells were incubated with tet and compound for 24 hours, 25 μL of 1×MultiTox reagent was added to each well using the Multidrop dispenser; the plates were placed on a plate shaker (600 rpm) for 2 minutes, then centrifuged briefly and placed back in the 37° C. incubator for 30 minutes. […]

Consider `C[C@@H]1C[C@](O)(c2cccc(Cl)c2)C[C@H](C)N1` [Compound 1], for which the IC50 is not below 500 nM.

In the case of `CC1CC(O)(c2cccc(Cl)c2)CC(c2cnn(CCS(C)(=O)=O)c2)N1` (stereo not shown) [Compound 2], the IC50 fell in the range of 50 to 500 nM. Under `C[C@H]1C[C@@](O)(c2cccc(Cl)c2)C[C@@H](c2cn(C)nn2)N1` [Compound 3] stands 50 to 500 nM; under `C[C@H]1C[C@@](O)(c2ccc(Cl)cc2)C[C@@H](c2cn(C)nn2)N1` [Compound 4], not above 50 nM; under `Cc1ccc([C@@]2(O)C[C@@H](c3cn(C)nn3)N[C@@H](C)C2)cc1` [Compound 5], 50 to 500 nM.

For `Cc1cccc([C@@]2(O)C[C@@H](c3cn(C)nn3)N[C@@H](C)C2)c1` [Compound 6], the IC50 lay in the range of 50 to 500 nM. Under `C[C@H]1C[C@@](O)(c2ccccc2)C[C@@H](c2cn(C)nn2)N1` [Compound 7] stands not below 500 nM. Take `CC(C)c1ccc([C@@]2(O)C[C@@H](c3cn(C)nn3)N[C@@H](C)C2)cc1` [Compound 8]: the IC50 is not above 50 nM. Under `C[C@H]1C[C@@](O)(c2ccc(F)c(Cl)c2)C[C@@H](c2cn(C)nn2)N1` [Compound 9] stands 50 to 500 nM. Next, `C[C@H]1C[C@@](O)(c2cc(F)cc(Cl)c2)C[C@@H](c2cn(C)nn2)N1` [Compound 10]: 50 to 500 nM; `Cc1ccc([C@@]2(O)C[C@@H](c3cn(C)nn3)N[C@@H](C)C2)cc1F` [Compound 11]: 50 to 500 nM; `Cc1cc([C@@]2(O)C[C@@H](c3cn(C)nn3)N[C@@H](C)C2)ccc1F` [Compound 12]: 50 to 500 nM. Next, `C[C@H]1C[C@@](O)(c2ccc(Cl)c(F)c2)C[C@@H](c2cn(C)nn2)N1` [Compound 13]: not above 50 nM.

With `C[C@H]1C[C@@](O)(c2csc(C(F)(F)F)c2)C[C@@H](c2cn(C)nn2)N1` [Compound 14], the IC50 lay in the range of 50 to 500 nM. Under `C[C@H]1C[C@@](O)(c2ccc(F)cc2)C[C@@H](c2cn(C)nn2)N1` [Compound 15] stands not below 500 nM; under `C[C@H]1C[C@@](O)(c2ccc(C(F)(F)F)cc2)C[C@@H](c2cn(C)nn2)N1` [Compound 16], not above 50 nM. In the case of `C[C@H]1C[C@@](O)(c2ccc(Cl)nc2)C[C@@H](c2cn(C)nn2)N1` [Compound 17], the IC50 was 50 to 500 nM. Next, `C[C@H]1C[C@@](O)(c2ccc(Cl)cn2)C[C@@H](c2cn(C)nn2)N1` [Compound 18]: 50 to 500 nM; `COc1cc([C@@]2(O)C[C@@H](c3cn(C)nn3)N[C@@H](C)C2)ccc1Cl` [Compound 19]: not above 50 nM. Under `COc1cc(Cl)ccc1[C@@]1(O)C[C@@H](c2cn(C)nn2)N[C@@H](C)C1` [Compound 20] stands not below 500 nM; under `Cc1cc(Cl)ccc1[C@@]1(O)C[C@@H](c2cn(C)nn2)N[C@@H](C)C1` [Compound 21], 50 to 500 nM. Under `C[C@H]1C[C@@](O)(c2ccc(Cl)cc2F)C[C@@H](c2cn(C)nn2)N1` [Compound 22] stands not above 50 nM; under `C[C@H]1C[C@@](O)(c2ccc(Cl)c(OC(F)(F)F)c2)C[C@@H](c2cn(C)nn2)N1` [Compound 23], not above 50 nM; under `C[C@H]1C[C@@](O)(c2ccc(Cl)c(C(=O)N(C)C)c2)C[C@@H](c2cn(C)nn2)N1` [Compound 24], 50 to 500 nM.

For `C[C@H]1C[C@@](O)(c2ccc(C(F)(F)F)c(F)c2)C[C@@H](c2cn(C)nn2)N1` [Compound 25], the IC50 is not above 50 nM. Next, `Cc1cc([C@@]2(O)C[C@@H](c3cn(C)nn3)N[C@@H](C)C2)ccc1Cl` [Compound 26]: not above 50 nM; `C[C@H]1C[C@@](O)(c2ccc(Br)cc2)C[C@@H](c2cn(C)nn2)N1` [Compound 27]: not above 50 nM. Next, `COc1cc([C@@]2(O)C[C@@H](c3cn(C)nn3)N[C@@H](C)C2)ccc1C(F)(F)F` [Compound 28]: not above 50 nM; `C[C@H]1C[C@@](O)(c2ccc(C3CC3)cc2)C[C@@H](c2cn(C)nn2)N1` [Compound 29]: not above 50 nM; `C[C@H]1C[C@@](O)(c2ccc(C#N)cc2)C[C@@H](c2cn(C)nn2)N1` [Compound 30]: 50 to 500 nM. With `C[C@H]1C[C@@](O)(c2ccc3c(c2)CC(C)(C)O3)C[C@@H](c2cn(C)nn2)N1` [Compound 31], the IC50 is not below 500 nM. Under `C[C@H]1C[C@@](O)(c2ccc3c(c2)C2(CCO3)CC2)C[C@@H](c2cn(C)nn2)N1` [Compound 32] stands 50 to 500 nM; under `C[C@H]1C[C@@](O)(c2ccc(Cl)c(C(F)(F)F)c2)C[C@@H](c2cn(C)nn2)N1` [Compound 33], not above 50 nM; under `Cc1cc([C@@]2(O)C[C@@H](c3cn(C)nn3)N[C@@H](C)C2)ccc1C(F)(F)F` [Compound 34], not above 50 nM.

For the compound `C[C@H]1C[C@@](O)(c2ccnc(C(F)(F)F)c2)C[C@@H](c2cn(C)nn2)N1` [Compound 35], the IC50 was not below 500 nM. Under `C[C@H]1C[C@@](O)(c2ccc(C(F)(F)F)c(Cl)c2)C[C@@H](c2cn(C)nn2)N1` [Compound 36] stands not above 50 nM; under `C[C@H]1C[C@@](O)(c2ccc(C(F)(F)F)nc2)C[C@@H](c2cn(C)nn2)N1` [Compound 37], 50 to 500 nM. Under `C[C@H]1C[C@@](O)(c2ccc(C(F)F)cc2)C[C@@H](c2cn(C)nn2)N1` [Compound 38] stands not above 50 nM; under `C[C@H]1C[C@@](O)(c2ccc(C(C)(F)F)cc2)C[C@@H](c2cn(C)nn2)N1` [Compound 39], not above 50 nM; under `C[C@H]1C[C@@](O)(c2ccc3c(c2)OC(F)(F)C3(F)F)C[C@@H](c2cn(C)nn2)N1` [Compound 40], not above 50 nM.

As for `C[C@H]1C[C@@](O)(c2ccc3c(c2)CCC3(F)F)C[C@@H](c2cn(C)nn2)N1` [Compound 41], the IC50 is less than 10000 nM.

Turning to `COc1cc([C@]2(O)C[C@H](C)N(C)[C@H](c3cn(C)nn3)C2)ccc1C(F)(F)F` [Compound 42], the IC50 lay in the range of 50 to 500 nM. For `C[C@H]1C[C@@](O)(c2ccc(C(F)(F)F)c(O)c2)C[C@@H](c2cn(C)nn2)N1` [Compound 43], the IC50 is not above 50 nM. Under `C[C@H]1C[C@@](O)(c2ccc(C(F)(F)F)cc2O)C[C@@H](c2cn(C)nn2)N1` [Compound 44] stands 50 to 500 nM; under `C[C@H]1C[C@@](O)(CS(=O)(=O)c2ccc(Br)cc2)C[C@@H](c2cn(C)nn2)N1` [Compound 45], not below 500 nM; under `C[C@H]1C[C@@](C#N)(c2ccc(C(F)(F)F)cc2)C[C@@H](c2cn(C)nn2)N1` [Compound 46, (2S,4S,6S)-2-methyl-6-(1-methyltriazol-4-yl)-4-[4-(trifluoromethyl)phenyl]piperidine-4-carbonitrile], 50 to 500 nM.
